# Laboratory results as given in US20050234103A1, “Crystalline forms of rabeprazole sodium” (priority 2002, published 2005).
# Conditions: as compared to prazoles such as panto prazole sodium and omeprazole sodium
smiles,measurement,value
"COCCCOc1ccnc(C[S+]([O-])c2nc3ccccc3[n-]2)c1C.[Na+] (stereo not shown) [Form X, 2-[[[4-(3-methoxypropoxy)-3-methyl-2-pyridinyl]-methyl]sulfinyl]-1H-benzimidazole sodium]",chemical stability such as thermo stability and light stability,better chemical stability
